Patent US20100266567A1, “USE OF URATE OXIDASE FOR THE TREATMENT OR PROPHYLAXIS OF DISORDERS OR INDIRECT SEQUELAE OF THE HEART CAUSED BY ISCHEMIC OR REPERFUSION EVENTS” (sanofi-aventis, priority 2007, published 2010)

Assays:
[1] = tested on: isolated rat hearts with global ischemia and reperfusion; assay: Isolated working rat heart with global ischemia and reperfusion: coronary flow and contractility
Text: Effects on Coronary Flow and Contractility of the Heart with Global Ischemia and Reperfusion: […]

isolated rat hearts = assay: Isolated working rat heart: coronary flow and contractility
Text: As biological materials the isolated hearts of male Wistar rats were used which were purchased from our Laboratory Animal Science and Welfare (LASW). The heart function (coronary flow and contractility) was investigated on the “Isolated Working Heart” model as previously described (Itter G et al., Laboratory Animals (2005) 39; 178-193). The hearts were first perfused according to Langendorff's method with an oxygenated (95% O2, 5% CO2) noncirculating Krebs-Henseleit solution of the following compositions (mmol/L): NaCl, 118; KCl, 4.7; CaCl2, 2.5; MgSO4, 1.6; NaHCO3, 24.9; KH2PO4, 1.2; glucose, 5.5; Na-pyruvate, 2.0. A catheter placed into the pulmonary artery drained the coronary effluent perfusate that was collected for determination of coronary flow and venous PO2 measurements. The left atrium was cannulated by an incision of the left auricle. After a 15-minute equilibration period at a fixed perfusion pressure of 60 mmHg, the heart was switched into the working mode at a fixed filling pressure of 11 mmHg. Coronary flow (CF) and pressure signals (dP/dtmax) were sampled at 500 Hz, averaged every 2 seconds.
High rasburicase concentrations were tested in combination with different uric acid concentrations on isolated working rat hearts for their possible adverse cardiac effects caused by the generated hydrogenperoxide (H2O2).

[2] = addition of ascorbic acid 1 mM to Rasb 50 μg/mL + UA 30 mg/L
[3] = UA 15 mg/L (Rasb 50 μg/mL where present), 1 min before ischemia
[4] = UA 15 mg/L (Rasb 50 μg/mL where present), 5 min before ischemia
[5] = UA 15 mg/L (Rasb 50 μg/mL where present), Global Ischemia
[6] = UA 15 mg/L (Rasb 50 μg/mL where present), Reperf. 5 min after Ischemia
[7] = UA 15 mg/L (Rasb 50 μg/mL where present), Reperf. 10 min after Ischemia
[8] = UA 15 mg/L (Rasb 50 μg/mL where present), Reperf. 15 min after Ischemia
[9] = UA 30 mg/L (Rasb 50 μg/mL where present), 1 min before ischemia, Table 5
[10] = UA 30 mg/L (Rasb 50 μg/mL where present), 5 min before ischemia, Table 5
[11] = UA 30 mg/L (Rasb 50 μg/mL where present), Global Ischemia, Table 5
[12] = UA 30 mg/L (Rasb 50 μg/mL where present), Reperf. 5 min after Ischemia, Table 5
[13] = UA 30 mg/L (Rasb 50 μg/mL where present), Reperf. 10 min after Ischemia, Table 5
[14] = UA 30 mg/L (Rasb 50 μg/mL where present), Reperf. 15 min after Ischemia, Table 5

For `O=C1O[C@H]([C@@H](O)CO)C(O)=C1O` [ascorbic acid, Ascorbic acid], the “contractility after ischemia/reperfusion (in words)” value [1, 2] was “further improvement” and the “coronary flow after ischemia/reperfusion (in words)” value [1, 2] was “normalization”.

For `OO` [H2O2, hydrogenperoxide], the “contractility (dP/dtmax)” value (isolated rat hearts; H2O2 10 μM, n = 4) was 4774 ± 185 mmHg/s, the “coronary flow (CF)” value (isolated rat hearts; H2O2 10 μM, n = 4) was 13.89 ± 0.55 mL/min and the “contractility (dP/dtmax)” value (isolated rat hearts; H2O2 30 μM, n = 4) was 4469 ± 167 mmHg/s. For the same molecule, the “coronary flow (CF)” value (isolated rat hearts; H2O2 30 μM, n = 4) was 15.21 ± 1 mL/min, the “contractility (dP/dtmax)” value (isolated rat hearts; H2O2 100 μM, n = 4) was 4573 ± 268 mmHg/s and the “coronary flow (CF)” value (isolated rat hearts; H2O2 100 μM, n = 4) was 15.7 ± 1.3 mL/min. For the same molecule, the “contractility (dP/dtmax)” value (isolated rat hearts; H2O2 200 μM, n = 4) was 1698 ± 69 mmHg/s, the “coronary flow (CF)” value (isolated rat hearts; H2O2 200 μM, n = 4) was 10.42 ± 0.3 mL/min and the “effect on coronary flow and contractility (in words)” value (isolated rat hearts; concentrations higher than 100 μM H2O2) was “strongly reduced”.

`O=c1[nH]c(=O)c2[nH]c(=O)[nH]c2[nH]1` [Uric Acid, Uric acid] was tested, and the “contractility (dP/dtmax)” value [1, 3] was 3608 ± 318 mmHg/s, the “coronary flow (CF)” value [1, 3] was 12.82 ± 0.75 mL/min and the “contractility (dP/dtmax)” value [1, 4] was 3600 ± 250 mmHg/s. The “coronary flow (CF)” value [1, 4] was 13.28 ± 0.7 mL/min, the “contractility (dP/dtmax)” value [1, 5] was 61 ± 1 mmHg/s and the “coronary flow (CF)” value [1, 5] was 0.38 ± 0.06 mL/min. The “contractility (dP/dtmax)” value [1, 6] was 1057 ± 496 mmHg/s, the “coronary flow (CF)” value [1, 6] was 4.47 ± 1.69 mL/min and the “contractility (dP/dtmax)” value [1, 7] was 1284 ± 667 mmHg/s. The “coronary flow (CF)” value [1, 7] was 4.71 ± 1.86 mL/min, the “contractility (dP/dtmax)” value [1, 8] was 1403 ± 736 mmHg/s and the “coronary flow (CF)” value [1, 8] was 4.73 ± 1.85 mL/min. The “contractility (dP/dtmax)” value [1, 9] was 4017 ± 437 mmHg/s, the “coronary flow (CF)” value [1, 9] was 13.11 ± 0.88 mL/min and the “contractility (dP/dtmax)” value [1, 10] was 4020 ± 350 mmHg/s. For the same molecule, the “coronary flow (CF)” value [1, 10] was 13.33 ± 0.7 mL/min, the “contractility (dP/dtmax)” value [1, 11] was 59 ± 2 mmHg/s and the “coronary flow (CF)” value [1, 11] was 0.31 ± 0.02 mL/min. For the same molecule, the “contractility (dP/dtmax)” value [1, 12] was 2224 ± 418 mmHg/s, the “coronary flow (CF)” value [1, 12] was 8.34 ± 1.88 mL/min and the “contractility (dP/dtmax)” value [1, 13] was 2898 ± 314 mmHg/s. For the same molecule, the “coronary flow (CF)” value [1, 13] was 9.16 ± 1.29 mL/min, the “contractility (dP/dtmax)” value [1, 14] was 3192 ± 273 mmHg/s and the “coronary flow (CF)” value [1, 14] was 9.25 ± 0.63 mL/min. For the same molecule, the “contractility (dP/dtmax)” value (isolated rat hearts; male, Wistar, rat, 6 mg/L) was 3867 ± 327 mmHg/s and the “coronary flow (CF)” value (isolated rat hearts; male, Wistar, rat, 6 mg/L) was 13.51 ± 1.02 mL/min.

B1: rasburicase (protein, listed as Aspergillus flavus)
chain: SAVKAARYGKDNVRVYKVHKDEKTGVQTVYEMTVCVLLEGEIETSYTKADNSVIVATDSIKNTIYITAKQNPVTPPELFGSILGTHFIEKYNHIHAAHVNIVCHRWTRMDIDGKPHPHSFIRDSEEKRNVQVDVVEGKGIDIKSSLSGLTVLKSTNSQFWGFLRDEYTTLKETWDRILSTDVDATWQWKNFSGLQEVRSHVPKFDATWATAREVTLKTFAEDNSASVQATMYKMAEQILARQQLIETVEYSLPNKHYFEIDLSWHKGLQNTGKNAEVFAPQSDPNGLIKCTVGRSSLKSKL
modifications: homotetramer
notes: recombinant urate oxidase enzyme from genetically modified Saccharomyces cerevisiae with Aspergillus flavus cDNA
In the case of B1, the “heart function (in words)” value ([1]; in the presence of uric acid, present prior and during ischemia/reperfusion) is reported as “even improved”, the “cardiodynamics after ischemia (in words)” value ([1]; ischemia/reperfusion experiments) is reported as “even improved” and the “recovery after ischemia/reperfusion (in words)” value ([1]; rasburicase 50 μg/mL in combination with uric acid 15 or 30 mg/L) is reported as “concentration-dependently improved”.
